Laboratory results as given in the NIST ThermoML archive (doi:10.1016/j.jct.2011.05.003).
± gives the expanded uncertainty stated by the source.

Experiment: xn = mol fraction of the nth substance listed
Details: Liquid; for speed of sound: 101 kPa, Sing-around technique in a fixed-path interferometer; for mass density: 101.3 kPa, Vibrating tube method

CCCCNCCCC [dibutylamine] + CCCCCC(C)=O
Details	mass density [kg/m3]	speed of sound [m/s]
293.15 K, x2 = 0.064	762.405 ± 0.16	1261.7 ± 0.84
293.15 K, x2 = 0.1633	767.21 ± 0.16	1263 ± 0.87
293.15 K, x2 = 0.2061	769.239 ± 0.17	1263.4 ± 0.89
293.15 K, x2 = 0.2606	772.046 ± 0.17	1264.5 ± 0.91
293.15 K, x2 = 0.4493	781.952 ± 0.18	1267.8 ± 0.97
293.15 K, x2 = 0.5094	785.255 ± 0.19	1269.1 ± 1
293.15 K, x2 = 0.644	792.949 ± 0.2	1272.1 ± 1.1
293.15 K, x2 = 0.7511	799.387 ± 0.21	1274.7 ± 1.1
293.15 K, x2 = 0.9018	808.899 ± 0.23	1278.8 ± 1.1
298.15 K, x2 = 0.0624	758.343 ± 0.16	1241.7 ± 0.83
298.15 K, x2 = 0.1107	760.603 ± 0.16	1242.2 ± 0.85
298.15 K, x2 = 0.2097	765.511 ± 0.17	1243.8 ± 0.88
298.15 K, x2 = 0.3613	773.119 ± 0.18	1246.3 ± 0.94
298.15 K, x2 = 0.4049	775.426 ± 0.18	1247.1 ± 0.95
298.15 K, x2 = 0.4499	777.849 ± 0.18	1248 ± 0.97
298.15 K, x2 = 0.5496	783.354 ± 0.19	1250.2 ± 1
298.15 K, x2 = 0.6482	789.026 ± 0.2	1252.5 ± 1.1
298.15 K, x2 = 0.7509	795.166 ± 0.21	1255.1 ± 1.1
298.15 K, x2 = 0.7987	798.112 ± 0.21	1256.4 ± 1.1
298.15 K, x2 = 0.8986	804.449 ± 0.23	1259.3 ± 1.1
298.15 K, x2 = 0.9488	807.773 ± 0.23	1261 ± 1.2
303.15 K, x2 = 0.1122	756.507 ± 0.16	1223.3 ± 0.84
303.15 K, x2 = 0.1605	758.79 ± 0.17	1223.9 ± 0.86
303.15 K, x2 = 0.2587	763.614 ± 0.17	1225.3 ± 0.89
303.15 K, x2 = 0.3597	768.787 ± 0.18	1227.2 ± 0.93
303.15 K, x2 = 0.4096	771.421 ± 0.18	1228.2 ± 0.95
303.15 K, x2 = 0.4986	776.259 ± 0.19	1230.1 ± 0.98
303.15 K, x2 = 0.6478	784.736 ± 0.2	1233.7 ± 1
303.15 K, x2 = 0.747	790.673 ± 0.21	1236.3 ± 1.1
303.15 K, x2 = 0.7997	793.928 ± 0.21	1237.9 ± 1.1
303.15 K, x2 = 0.852	797.226 ± 0.22	1239.4 ± 1.1
303.15 K, x2 = 0.8984	800.193 ± 0.23	1240.8 ± 1.1
